# Data taken from US20250134102A1, “USE OF FLAVONOID GLYCOSIDE IN RESISTANCE OF WEEDS IN RICE” (INSTITUTE OF BOTANY, THE CHINESE ACADEMY OF SCIENCE, priority 2021, published 2025).
# Columns and labels:
# [1] = test system: Echinochloa crus-galli; assay: External application of the compound to Echinochloa crus-galli seeds on agar medium, radicle and embryo length; assay type: in vivo; settings: 500 mg/L in 0.8% agar, 28° C., 3 days in the dark, 3 biological repeats
# Procedure: I. Procedures for External Application of the Compound to Lettuce and Echinochloa crus-galli Compounds to be tested: isoorientin and isoorientin-2″-O-glucopyranoside. (1) The compounds to be tested were dried into powder with a centrifugal concentrator and weighed, a proper amount of sterile water was added to make its final concentration to be 10 mg/mL. (2) 500 mL of 0.8% agar was prepared and sterilized in an autoclave. […] solution of the compounds to be tested at a concentration of 10 mg/mL were added to make the final concentration of the compounds to be 500 mg/L. The medium containing the compound to be tested was quickly poured into a 10 cm×10 cm square dish, and the square dish was shaken quickly so that the medium was evenly spread in the square dish. The medium added with equal amount of sterile water was used as control. (4) The seeds of Echinochloa crus-galli were washed with distilled water for several times, and then placed on sterile filter paper to dry. (5) After the medium had solidified, the seeds of Echinochloa crus-galli were placed with sterile tweezers on the medium, and 26 seeds were placed in each petri dish (2 rows, with 13 seeds in each row). Each treatment had 3 biological repeats. (6) The petri dishes were placed in an incubator at 28° C. for 3 days in the dark. (7) Phenotypic statistics: after 3 days, the length of radicle and embryo of each treated material were counted.
# [2] = test system: Os02g0589400 recombinant protein; assay: In vitro enzymatic activity of Os02g0589400 (glycosylation of isoorientin with UDPG, UPLC-QTOF/MS); assay type: biochemical, Oryza sativa L. ssp. japonica cv. Zhonghua 11 (ZH11); settings: glycosyl donor UDPG, Tris-HCl pH 7.0, 30° C., 1 hour
# Procedure: The enzymatic activity reaction system was: 38 μL of Tris-HCl (pH 7.0, 50 mM, containing 10 mM DTT), 1 μL of 10 mM glycosyl receptor (the glycosyl receptor of Os02g0589400 is isoorientin), 1 μL of 100 mM glycosyl donor (UDPG), and 10 μL of 2.03 μg/μL of recombinant protein of Os02g0589400 obtained in (2). React in water bath at 30° C. for 1 hour, and then stop the reaction with equal volume of methanol. A sample containing protein obtained from E. coli into which a pMAL-c2X mock vector was transferred according to the above step (2) was taken as the negative control. Centrifuge at 12,000 rpm, 4° C. for 10 min, 30 μL of the resulting supernatant was taken and measured by UPLC-QTOF/MS, and the measuring method was the same as that shown in Example 1.
Structure (SMILES),embryo length of Echinochloa crus-galli compared with the control [1],radicle length of Echinochloa crus-galli compared with the control [1],glycosylation of the glycosyl receptor by Os02g0589400 recombinant protein compared with the mock control [2]
O=c1cc(-c2ccc(O)c(O)c2)oc2cc(O)c([C@@H]3O[C@H](CO)[C@@H](O)[C@H](O)[C@H]3O[C@@H]3O[C@H](CO)[C@@H](O)[C@H](O)[C@H]3O)c(O)c12 [isoorientin-2″-O-glucopyranoside],no significant difference,no significant difference,–
O=c1cc(-c2ccc(O)c(O)c2)oc2cc(O)c([C@@H]3O[C@H](CO)[C@@H](O)[C@H](O)[C@H]3O)c(O)c12 [isoorientin],no significant difference,significantly shortened,could catalyze isoorientin to produce isoorientin-2″-O-glucopyranoside
